In ChEMBL document CHEMBL1201862, “PubChem BioAssay data set” (2004):
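All cell lines were grown in 96-well plates and treated with compound for 48 hours. Abbreviation: GI50, concentration required for 50% inhibition of growth.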 Calls of active or inactive are those of the source. Rule as the data show it: active = GI50 up to about 1.1 µM and inactive = higher.

Columns and labels:
Experiment in all cases: inhibition of tumour cell growth, NCI panel, 48 h
[1] = tested on: COLO 205
[2] = tested on: EKVX
[3] = tested on: HOP-62
[4] = tested on: IGROV-1
[5] = tested on: M14
[6] = tested on: MCF7
[7] = tested on: MDA-MB-435
[8] = tested on: Malme-3M
[9] = tested on: NCI-H23
[10] = tested on: NCI-H522
[11] = tested on: OVCAR-3
[12] = tested on: OVCAR-4
[13] = tested on: RXF 393
[14] = tested on: SF-268
[15] = tested on: SF-539
[16] = tested on: SNB-19
[17] = tested on: SNB-75
[18] = tested on: T47D
[19] = tested on: TK-10
[20] = tested on: UACC-62

| SMILES | GI50 [1] | GI50 [2] | GI50 [3] | GI50 [4] | GI50 [5] | GI50 [6] | GI50 [7] | GI50 [8] | GI50 [9] | GI50 [10] | GI50 [11] | GI50 [12] | GI50 [13] | GI50 [14] | GI50 [15] | GI50 [16] | GI50 [17] | GI50 [18] | GI50 [19] | GI50 [20] |
| --- | --- | --- | --- | --- | --- | --- | --- | --- | --- | --- | --- | --- | --- | --- | --- | --- | --- | --- | --- | --- |
| COc1cc2cc(C(=O)N3CC(CCl)c4ccc([N+](=O)[O-])cc43)[nH]c2c(OC)c1OC (stereo not given) | > 100 µM (inactive) | 30.8 µM (inactive) | > 100 µM (inactive) | > 100 µM (inactive) | > 100 µM (inactive) | > 100 µM (inactive) | > 100 µM (inactive) | > 100 µM (inactive) | > 100 µM (inactive) | > 100 µM (inactive) | > 100 µM (inactive) | 29.2 µM (inactive) | > 100 µM (inactive) | > 100 µM (inactive) | > 100 µM (inactive) | > 100 µM (inactive) | > 100 µM (inactive) | > 100 µM (inactive) | > 100 µM (inactive) | > 100 µM (inactive) |
| Oc1ccccc1CNCc1ccccc1O | 34 µM (inactive) | > 100 µM (inactive) | > 100 µM (inactive) | > 100 µM (inactive) | > 100 µM (inactive) | > 100 µM (inactive) | 54.3 µM (inactive) | > 100 µM (inactive) | > 100 µM (inactive) | > 100 µM (inactive) | > 100 µM (inactive) | > 100 µM (inactive) | > 100 µM (inactive) | > 100 µM (inactive) | 56.1 µM (inactive) | > 100 µM (inactive) | > 100 µM (inactive) | > 100 µM (inactive) | > 100 µM (inactive) | > 100 µM (inactive) |
| COc1cc(/C=C2\C[C@H]3[C@@H]4CCC5=CC(=O)CC[C@]5(C)[C@H]4CC[C@]3(C)C2=O)cc(OC)c1OC | 4.32 µM (inactive) | 15.6 µM (inactive) | 12.8 µM (inactive) | 8.99 µM (inactive) | 3.74 µM (inactive) | 3.56 µM (inactive) | 3.36 µM (inactive) | 11.4 µM (inactive) | 6.4 µM (inactive) | 3.2 µM (inactive) | 4.49 µM (inactive) | 6.12 µM (inactive) | 10.1 µM (inactive) | 57.3 µM (inactive) | 46.7 µM (inactive) | 30.3 µM (inactive) | 9.08 µM (inactive) | 2.04 µM (inactive) | 19.8 µM (inactive) | 4.35 µM (inactive) |
| CNc1ccc(C)cc1S(=O)(=O)c1ccccc1[N+](=O)[O-] | 65.6 µM (inactive) | 51.8 µM (inactive) | 58.9 µM (inactive) | 58.5 µM (inactive) | 40.6 µM (inactive) | 30 µM (inactive) | 25.5 µM (inactive) | 60.3 µM (inactive) | 63 µM (inactive) | 31.8 µM (inactive) | 43.2 µM (inactive) | 25.2 µM (inactive) | > 100 µM (inactive) | 53 µM (inactive) | > 100 µM (inactive) | 78 µM (inactive) | 43.3 µM (inactive) | 29 µM (inactive) | 99.3 µM (inactive) | 22.1 µM (inactive) |
| O=C(O)c1ccccc1C(=O)NCC1S(=O)(=O)OCCOS1(=O)=O | > 100 µM (inactive) | > 100 µM (inactive) | > 100 µM (inactive) | > 100 µM (inactive) | > 100 µM (inactive) | > 100 µM (inactive) | > 100 µM (inactive) | > 100 µM (inactive) | > 100 µM (inactive) | > 100 µM (inactive) | > 100 µM (inactive) | > 100 µM (inactive) | > 100 µM (inactive) | > 100 µM (inactive) | > 100 µM (inactive) | > 100 µM (inactive) | > 100 µM (inactive) | > 100 µM (inactive) | > 100 µM (inactive) | > 100 µM (inactive) |
| N#Cc1nc(/C=C/c2cccnc2)oc1N | > 100 µM (inactive) | > 100 µM (inactive) | > 100 µM (inactive) | > 100 µM (inactive) | > 100 µM (inactive) | > 100 µM (inactive) | > 100 µM (inactive) | > 100 µM (inactive) | > 100 µM (inactive) | > 100 µM (inactive) | > 100 µM (inactive) | > 100 µM (inactive) | > 100 µM (inactive) | > 100 µM (inactive) | > 100 µM (inactive) | > 100 µM (inactive) | > 100 µM (inactive) | > 100 µM (inactive) | > 100 µM (inactive) | > 100 µM (inactive) |
| CC1C(=O)C23OC[C@@]1(C)C1(O)CC[C@@H](C)[C@]21CC3=O (stereo not given in full) | > 100 µM (inactive) | > 100 µM (inactive) | > 100 µM (inactive) | > 100 µM (inactive) | > 100 µM (inactive) | > 100 µM (inactive) | > 100 µM (inactive) | > 100 µM (inactive) | > 100 µM (inactive) | > 100 µM (inactive) | > 100 µM (inactive) | > 100 µM (inactive) | > 100 µM (inactive) | > 100 µM (inactive) | > 100 µM (inactive) | > 100 µM (inactive) | > 100 µM (inactive) | > 100 µM (inactive) | > 100 µM (inactive) | > 100 µM (inactive) |
| NCC(=O)NC1(c2cc3ccccc3s2)CCCCC1 | 17.9 µM (inactive) | 19.9 µM (inactive) | > 100 µM (inactive) | 61.1 µM (inactive) | 17.6 µM (inactive) | 27.2 µM (inactive) | 37.8 µM (inactive) | 17.6 µM (inactive) | 71.4 µM (inactive) | 41.4 µM (inactive) | > 100 µM (inactive) | 50.8 µM (inactive) | 42.3 µM (inactive) | 28.4 µM (inactive) | 50.9 µM (inactive) | > 100 µM (inactive) | 28.3 µM (inactive) | 40 µM (inactive) | 36 µM (inactive) | 19.7 µM (inactive) |
| CN1CCN(C2=C(Cl)C(=O)c3c(O)ccc(O)c3C2=O)CC1 | 0.182 µM (active) | 1.66 µM (inactive) | 1.92 µM (inactive) | 1.3 µM (inactive) | 0.281 µM (active) | 0.24 µM (active) | 0.214 µM (active) | 0.196 µM (active) | 0.61 µM (active) | 0.243 µM (active) | 0.542 µM (active) | 0.377 µM (active) | 0.18 µM (active) | 1.85 µM (inactive) | 0.959 µM (active) | 4.99 µM (inactive) | 2.03 µM (inactive) | 0.551 µM (active) | 0.514 µM (active) | 1.32 µM (inactive) |
